Data published in patent US20240400575A1, “POLYCYCLIC COMPOUNDS AS SOLUBLE EPOXIDE HYDROLASE INHIBITORS” (Universitat De Barcelona, priority 2018, published 2024).

Target: T1, recombinant human sEH (hsEH) (Homo sapiens, UniProt P34913)
T1 construct: purchased Cayman Chemical 10011669
T1 sequence (P34913 1-555): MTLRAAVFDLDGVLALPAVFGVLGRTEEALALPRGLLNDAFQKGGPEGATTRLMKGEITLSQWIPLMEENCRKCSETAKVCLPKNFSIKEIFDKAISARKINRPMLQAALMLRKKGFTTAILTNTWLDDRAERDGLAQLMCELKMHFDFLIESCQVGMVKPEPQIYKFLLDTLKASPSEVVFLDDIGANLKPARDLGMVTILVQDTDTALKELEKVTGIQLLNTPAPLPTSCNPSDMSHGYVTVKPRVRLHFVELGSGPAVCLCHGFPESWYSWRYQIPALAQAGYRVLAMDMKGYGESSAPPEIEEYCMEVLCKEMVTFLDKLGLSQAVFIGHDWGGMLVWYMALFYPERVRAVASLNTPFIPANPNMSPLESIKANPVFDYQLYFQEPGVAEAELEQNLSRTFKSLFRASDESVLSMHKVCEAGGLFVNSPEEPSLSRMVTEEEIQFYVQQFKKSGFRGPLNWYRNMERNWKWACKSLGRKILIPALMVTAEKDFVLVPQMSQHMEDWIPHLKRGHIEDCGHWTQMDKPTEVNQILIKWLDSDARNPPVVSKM
Assay: In vitro determination of sEH inhibition activity (fluorescent assay, PHOME substrate)
Format: biochemical
Conditions: fluorescence, Bis/Tris HCl pH 7.0 with 0.1 mg/mL BSA
Experimental: Add 5 μL of DMSO to background and positive control wells, and then add 5 μL of inhibitor solution in inhibitor wells. Add 5 μL of the solution of hsEH to the positive control and inhibitor wells and stir the mixture. Prepare a 1/21 dilution of the solution of PHOME with assay buffer according to final volume required, and then add 105 μL of each well. Shake carefully the plate for 10 seconds and incubate for 5 minutes at room temperature. […] The intensity of fluorescence was used to analyze and calculate the IC50 values. Results were obtained by regression analysis from at least three data points in a linear region of the curve. IC50 values are average of minimum three independent replicates.

Compound	IC50 [nM]
CC12CC3CC(NC(=S)Nc4ccc(C(F)(F)F)cc4)(CC(C1)c1ccccc13)C2 [Example 35, 1-(9-methyl-5,6,8,9,10,11-hexahydro-7H-5,9:7,11-dimethanobenzo[9]annulen-7-yl)-3-(4-(trifluoromethyl)phenyl)thiourea]	100 to 1000
CC(=O)N1CCC(NC(=O)NC23CC4CC(C)(CC(C2)c2ccccc24)O3)CC1 [Example 36, 1-(1-acetylpiperidin-4-yl)-3-(5-methyl-1,5,6,7-tetrahydro-1,5:3,7-dimethanobenzo[e]oxonin-3(2H)-yl)urea]	100 to 1000
CC12CC3CC(NC(=O)NC4CCC(Oc5ccc(C(=O)O)cc5)CC4)(CC(C1)c1ccccc13)O2 (centres unmarked) [Example 43, 4-(((1r,4r)-4-(3-(5-methyl-1,5,6,7-tetrahydro-1,5:3,7-dimethanobenzo [e]oxonin-3(2H)-yl)ureido)cyclohexyl)oxy)benzoic acid]	10 to 50
CC(=O)N1CCC(NC(=O)NC23CC4CC(C)(CC(C2)c2cc(N)ccc24)C3)CC1 (centres unmarked) [Example 53, 1-(1-acetylpiperidin-4-yl)-3-(2-amino-9-methyl-5,6,8,9,10,11-hexa-hydro-7H-5,9:7,11-dimethanobenzo[9]annulen-7-yl)urea]	10 to 50
CC(C)S(=O)(=O)N1CCC(CC(=O)NC23CC4CC(C)(CC(C2)c2ccccc24)C3)CC1 [Example 56, 2-[1-(isopropylsulfonyl)piperidin-4-yl]-N-(9-methyl-5,6,8,9,10,11-hexahydro-7H-5,9:7,11-dimethanobenzo[9]annulen-7-yl)acetamide]	10 to 50
CC(=O)N1CCC(CC(=O)NC23CC4CC(C)(CC(C2)c2ccccc24)C3)CC1 [Example 57, 2-(1-acetylpiperidin-4-yl)-N-(9-methyl-5,6,8,9,10,11-hexahydro-7H-5,9:7,11-dimethanobenzo[9]annulen-7-yl)acetamide]	100 to 1000
CC12CC3CC(NC(=O)Nc4ccc(F)c(F)c4F)(CC(C1)c1ccccc13)O2 [Example 59, 1-(5-methyl-1,5,6,7-tetrahydro-1,5:3,7-dimethanobenzo[e]oxonin-3(2H)-yl)-3-(2,3,4-trifluorophenyl)urea]	10 to 50
CC12CC3CC(NC(=O)CC4CCN(Cc5ccccc5)CC4)(CC(C1)c1ccccc13)C2 [Example 60, 2-(1-benzylpiperidin-4-yl)-N-(9-methyl-5,6,8,9,10,11-hexahydro-7H-5.9:7,11-dimethanobenzo[9]annulen-7-yl)acetamide]	100 to 1000
CC(=O)N1CCC(NC(=O)NC23CC4CC2CC(C3)c2ccccc24)CC1 [Example 72, 1-(1-acetylpiperidin-4-yl)-3-(5,8,9,10-tetrahydro-5,8:7,10-dimethano-benzo[8]annulen-7(6H)-yl)urea]	10 to 50
COC12CC3CC(NC(=O)Nc4nc5ccccc5s4)(CC(C1)c1ccccc13)C2 [Example 73, 1-(benzo[d]thiazol-2-yl)-3-(9-methoxy-5,6,8,9,10,11-hexahydro-7H-5,9:7,11-dimethanobenzo[9]annulen-7-yl)urea]	100 to 1000
CC(=O)N1CCC(NC(=O)NC23CC4CC(F)(CC(C2)c2c(F)cccc24)C3)CC1 (centres unmarked) [Example 74, 1-(1-acetylpiperidin-4-yl)-3-(1,9-difluoro-5,6,8,9,10,11-hexahydro-7H-5,9:7,11-dimethanobenzo[9]annulen-7-yl)urea]	< 10

Other lines, results leading:

IC50 [nM]	Compound
< 10	CC12CC3CC(NC(=O)NC4CCC(Oc5ccc(C(=O)O)cc5)CC4)(CC(C1)c1ccccc13)C2 (centres unmarked) [Example 44, 4-(((1r,4r)-4-(3-(9-methyl-5,6,8,9,10,11-hexahydro-7H-5,9:7,11-dimethanobenzo[9]annulen-7-yl)ureido)cyclohexyl)oxy)benzoic acid]
< 10	CC12CC3CC(NC(=O)NC4CCN(Cc5ccccc5)CC4)(CC(C1)c1ccccc13)C2 [Example 48, 1-(1-benzylpiperidin-4-yl)-3-(9-methyl-5,6,8,9,10,11-hexahydro-7H-5,9:7,11-dimethanobenzo[9]annulen-7-yl)urea]
< 10	CC(=O)c1ccc2c(c1)C1CC3(C)CC2CC(NC(=O)NC2CCN(C(C)=O)CC2)(C1)C3 (centres unmarked) [Example 51, 1-(2-acetyl-9-methyl-5,6,8,9,10,11-hexahydro-7H-5,9:7,11-dimethano-benzo[9]annulen-7-yl)-3-(1-acetylpiperidin-4-yl)urea]
< 10	CC(=O)N1CCC(NC(=O)NC23CC4CC(C)(CC(C2)c2cc([N+](=O)[O-])ccc24)C3)CC1 (centres unmarked) [Example 52, 1-(1-acetylpiperidin-4-yl)-3-(9-methyl-2-nitro-5,6,8,9,10,11-hexahydro-7H-5,9:7,11-dimethanobenzo[9]annulen-7-yl)urea]
< 10	CC12CC3CC(NC(=O)Nc4ccc(F)c(F)c4F)(CC(C1)c1ccccc13)C2 [Example 58, 1-(9-methyl-6,7,8,9,10,11-hexahydro-5H-5,9:7,11-dimethanobenzo[9]annulen-7-yl)-3-(2,3,4-trifluorophenyl)urea]
< 10	CC(=O)c1ccc(N2CCC(NC(=O)NC34CC5CC(C)(CC(C3)c3ccccc35)C4)CC2)cc1 [Example 64, 1-(1-(4-acetylphenyl)piperidin-4-yl)-3-(9-methyl-5,6,8,9,10,11-hexahydro-7H-5,9:7,11-dimethanobenzo[9]annulen-7-yl)urea]
< 10	CC12CC3CC(NC(=O)NC4CCN(C(=O)c5ccccc5F)CC4)(CC(C1)c1ccccc13)C2 [Example 66, 1-(1-(2-fluorobenzoyl)piperidin-4-yl)-3-(9-methyl-5,6,8,9,10,11-hexa-hydro-7H-5,9:7,11-dimethanobenzo[9]annulen-7-yl)urea]
< 10	CC12CC3CC(NC(=O)NC4CC5CCC(C4)N5Cc4ccccc4)(CC(C1)c1ccccc13)C2 [Example 67, 1-((1R,3s,5S)-8-benzyl-8-azabicyclo[3.2.1]octan-3-yl)-3-(9-methyl-5,6,8.9.10,11-hexahydro-7H-5.9:7,11-dimethanobenzo[9]annulen-7-yl)urea]
< 10	CC(=O)N1CCC(NC(=O)NC23CC4CC(C)(CC(C2)c2cc(F)ccc24)C3)CC1 (centres unmarked) [Example 68, 1-(1-acetylpiperidin-4-yl)-3-(2-fluoro-9-methyl-5,6,8,9,10,11-hexahydro-7H-5,9:7,11-dimethanobenzo[9]annulen-7-yl)urea]
< 10	COc1ccc2c(c1)C1CC3(C)CC2CC(NC(=O)NC2CCN(C(C)=O)CC2)(C1)C3 (centres unmarked) [Example 69, 1-(1-acetylpiperidin-4-yl)-3-(2-methoxy-9-methyl-5,6,8,9,10,11-hexa-hydro-7H-5.9:7,11-dimethanobenzo[9]annulen-7-yl)urea]
< 10	CC(=O)N1CCC(NC(=O)NC23CC4CC(C)(CC(C2)c2c(F)cccc24)C3)CC1 (centres unmarked) [Example 70, 1-(1-acetylpiperidin-4-yl)-3-(1-fluoro-9-methyl-5,6,8,9,10,11-hexahydro-7H-5,9:7,11-dimethanobenzo[9]annulen-7-yl)urea]
< 10	COc1cc2c(cc1OC)C1CC3(C)CC2CC(NC(=O)NC2CCN(C(C)=O)CC2)(C1)C3 [Example 71, 1-(1-acetylpiperidin-4-yl)-3-(2,3-dimethoxy-9-methyl-5,6,8,9,10,11-hexahydro-7H-5.9:7,11-dimethanobenzo[9]annulen-7-yl)urea]
